This is an account of results in ChEMBL document CHEMBL1154080, “2D-QSAR and 3D-QSAR/CoMFA analyses of the N-terminal substituted anthranilic acid based CCK(1) receptor antagonists: 'Hic Rhodus, hic saltus'” (Bioorg Med Chem, 2009).

For assay [1], the species on record is Cavia porcellus. Kind of assay: Displacement of [125I]-CCK8 from CCK2 receptor in guinea pig cerebral cortex at 3 uM. In kind it is tissue-based. For orientation: Loss of bound radioactivity is the signal in a displacement assay; it reports binding, not function.
In assay [2] the target is T1, Cholecystokinin receptor type A (Rattus norvegicus, UniProt P30551).
T1 sequence (P30551 whole entry): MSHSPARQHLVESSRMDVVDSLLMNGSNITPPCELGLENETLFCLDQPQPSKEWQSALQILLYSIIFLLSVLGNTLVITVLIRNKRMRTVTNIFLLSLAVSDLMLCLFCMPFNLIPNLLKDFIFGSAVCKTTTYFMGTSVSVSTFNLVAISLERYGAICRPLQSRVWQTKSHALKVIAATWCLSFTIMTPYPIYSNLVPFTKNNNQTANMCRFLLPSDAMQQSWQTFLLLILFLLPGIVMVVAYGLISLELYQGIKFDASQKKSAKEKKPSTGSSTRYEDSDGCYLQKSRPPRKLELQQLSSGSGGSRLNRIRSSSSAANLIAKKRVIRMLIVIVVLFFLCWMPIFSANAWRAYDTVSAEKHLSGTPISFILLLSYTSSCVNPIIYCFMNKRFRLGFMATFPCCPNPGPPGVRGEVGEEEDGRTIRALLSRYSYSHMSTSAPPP
Kind of assay: Displacement of [125I]-CCK8 from CCK1 receptor in rat pancreatic acinar cells.

Assay [3] in a line: (§1) Displacement of [125I]-CCK8 from CCK2 receptor in guinea pig cerebral cortex. In kind it is tissue-based, Cavia porcellus.
The species named for assay [4] is Cavia porcellus. The assay can be described thus: Displacement of [125I]-CCK8 from CCK2 receptor in guinea pig cerebral cortex at 30 uM. In kind it is tissue-based.
The target of assay [5] is T2, Cholecystokinin receptor type A (Rattus norvegicus) (UniProt P30551).
T2 sequence (whole entry): T1 sequence (P30551 whole entry)
The assay can be described thus: Displacement of [125I]-CCK8 from CCK1 receptor in rat pancreatic acinar cells at 3 uM.

Assay [6] has as its target T2, Cholecystokinin receptor type A (Rattus norvegicus). Kind of assay: Displacement of [125I]-CCK8 from CCK1 receptor in rat pancreatic acinar cells at 1 uM.
Assay [7] has the same target. Kind of assay: Displacement of [125I]-CCK8 from CCK1 receptor in rat pancreatic acinar cells 10 uM.
For assay [8], the species on record is Cavia porcellus. The description is as §1. The format is tissue-based. The conditions noted are these: concentration not given here.

pIC50: −log10 of the molar value.

Take `Cn1c(C(=O)Nc2ccccc2C(=O)NC(Cc2ccccc2)C(=O)O)cc2cc([N+](=O)[O-])ccc21` (racemic): the inhibition in the assay listed under Cavia porcellus [1] was < 20%. For the same compound, the negative logarithm of the IC50 (pIC50) in assay [2] was 5.96.
In the case of `O=C(Nc1ccccc1C(=O)NC(Cc1ccccc1)C(=O)O)c1cc2c([nH]1)CCCC2` (racemic), the negative logarithm of the IC50 (pIC50) in assay [3] was 4.15.
On to `O=C(Nc1ccccc1C(=O)NC(Cc1ccccc1)C(=O)O)C1=CC2CCCC2N1` (racemic), for which the results for the pIC50 in assay [3] and in assay [2] were 4.22 and 4.88, respectively.
Taken in the same sequence, the figures for `O=C(Nc1ccccc1C(=O)NC(Cc1ccccc1)C(=O)O)c1cc2ccccc2o1` (racemic) were 4.86 and 6.05.
Turning to `O=C(/C=C/c1ccccc1)Nc1ccccc1C(=O)NC(Cc1ccccc1)C(=O)O` (racemic), in the assay filed under Cavia porcellus [4], the inhibition turned out to be 49%.
In turn, `O=C(Nc1ccccc1C(=O)NC(Cc1ccccc1)C(=O)O)c1cnc2ccccc2c1` (racemic) had a negative logarithm of the IC50 (pIC50) in assay [3] of 4.73.
The same measure, in the same setting: next, `O=C(Nc1ccccc1C(=O)NC(Cc1ccccc1)C(=O)O)c1cc2ccccc2s1` (racemic): 4.97.
`O=C(NC(Cc1ccccc1)C(=O)O)c1ccccc1NC(=O)c1nccc2ccccc12` (racemic) displayed an inhibition in the assay filed under Cavia porcellus [4] of 53%. Moreover, the pIC50 in assay [2] was 4.88.
Regarding `COc1ccc2[nH]c(C(=O)Nc3ccccc3C(=O)NC(Cc3ccccc3)C(=O)O)cc2c1` (racemic), the pIC50 in assay [3] was 4.77. The inhibition in assay [5] came to 42%.
With `COc1cc2cc(C(=O)Nc3ccccc3C(=O)NC(Cc3ccccc3)C(=O)O)[nH]c2cc1OC` (racemic), the inhibition (in the assay listed under Cavia porcellus [1]; in assay [6]) was < 20% throughout.
In turn, `O=C(Nc1ccccc1C(=O)NC(Cc1ccccc1)C(=O)O)c1cc2cc(Cl)ccc2[nH]1` (racemic) returned an inhibition in the assay filed under Cavia porcellus [4] of 31%. The pIC50 in assay [2] was 5.73.
As to `Cc1cccc2cc(C(=O)Nc3ccccc3C(=O)NC(Cc3ccccc3)C(=O)O)[nH]c12` (racemic), the results for the pIC50 in assay [3] and in assay [2] were 4.99 and 6.17, respectively.
Turning to `O=C(Nc1ccccc1C(=O)NC(Cc1ccccc1)C(=O)O)c1cc2cc(F)cc(F)c2[nH]1` (racemic), the pIC50 in assay [3] is 5.03. The compound also yielded an inhibition in assay [7] of 59%.
`O=C(Nc1ccccc1C(=O)NC(Cc1ccccc1)C(=O)O)c1cc2cc(F)ccc2[nH]1` (racemic): the pIC50 is 4.97 in assay [3] and 6.50 in assay [2].
For the compound `O=C(Cc1ccccc1)Nc1ccccc1C(=O)NC(Cc1ccccc1)C(=O)O` (racemic), the inhibition in the assay filed under Cavia porcellus [4] is 36%; in assay [7], < 20%.
`CC1=C(C(=O)Nc2ccccc2C(=O)NC(Cc2ccccc2)C(=O)O)Cc2ccccc21` (racemic) had a pIC50 in assay [3] of 4.86.
The same measure, in the same setting: in the case of `O=C(Nc1ccccc1C(=O)NC(Cc1ccccc1)C(=O)O)c1nc2ccccc2[nH]1` (racemic) it was 4.99.
For the compound `O=C(Nc1ccccc1C(=O)NC(Cc1ccccc1)C(=O)O)c1cc2cccc(C(F)(F)F)c2[nH]1` (racemic), the negative-log IC50 (pIC50) in assay [3] is 4.95; in assay [2], 6.27.
Consider `O=C(Nc1ccccc1C(=O)N[C@@H](Cc1ccccc1)C(=O)O)c1cc2cccc(F)c2[nH]1`, for which the negative-log IC50 (pIC50) is 5.05 in assay [3] and 5.45 in assay [2].
In assay [3], `O=C(NC(Cc1ccccc1)C(=O)O)c1ccccc1NC(=O)C12CC3CC(CC(C3)C1)C2` (racemic) had a pIC50 of 4.84. Moreover, the inhibition in assay [7] was < 20%.
The like results for `O=C(NC(Cc1ccccc1)C(=O)O)c1ccccc1NS(=O)(=O)c1cccc2ccccc12` (racemic) were, in that order, 5.23 and < 20%.
Taken in the same sequence, the figures for `O=C(NC(Cc1ccccc1)C(=O)O)c1ccccc1NC(=O)c1cccc2ccccc12` (racemic) were 5.18 and < 20%.
Consider `O=C(Nc1ccccc1C(=O)NC(Cc1ccccc1)C(=O)O)c1cccnc1` (racemic), for which the inhibition was 44% in the assay filed under Cavia porcellus [4] and < 20% in assay [5].
On to `O=C(Nc1ccccc1C(=O)NC(Cc1ccccc1)C(=O)O)c1ccc2[nH]ccc2c1` (racemic), for which the inhibition in assay [7] worked out at 41%.
Take `O=C(Nc1ccccc1C(=O)NC(Cc1ccccc1)C(=O)O)c1cnccn1` (racemic): the inhibition (in the assay filed under Cavia porcellus [4]; in assay [5]) was < 20% throughout.
Consider `O=C(Nc1ccccc1C(=O)NC(Cc1ccccc1)C(=O)O)c1cc2cc(OCc3ccccc3)ccc2[nH]1` (racemic), for which the inhibition (in the assay listed under Cavia porcellus [1]; in assay [6]) was < 20% in each case.
As to `O=C(Nc1ccccc1C(=O)NC(Cc1ccccc1)C(=O)O)c1cc2ccc(F)cc2[nH]1` (racemic), the negative logarithm of the IC50 (pIC50) in assay [3] was 4.43; in assay [2] it was 6.53.
On to `O=C(Nc1ccccc1C(=O)NC(Cc1ccccc1)C(=O)O)c1cc2cccc(F)c2[nH]1` (racemic), for which the values for the pIC50 in assay [3] and in assay [2] were 4.73 and 6.80, respectively.
As for `CC(C)(C)C(=O)Nc1ccccc1C(=O)NC(Cc1ccccc1)C(=O)O` (racemic), the inhibition in the assay listed under Cavia porcellus [4] is 24%; in assay [7], < 20%.
For the compound `O=C(Nc1ccccc1C(=O)NC(Cc1ccccc1)C(=O)O)c1ccc[nH]1` (racemic), the inhibition in assay [5] is < 20%.
Consider `O=C(CCc1c[nH]c2ccccc12)Nc1ccccc1C(=O)NC(Cc1ccccc1)C(=O)O` (racemic), for which, in assay [3], the pIC50 was 4.87.
For the compound `Cc1c(C(=O)Nc2ccccc2C(=O)NC(Cc2ccccc2)C(=O)O)[nH]c2ccccc12` (racemic), the pIC50 in assay [3] is 5.01; in assay [2], 5.69.
As to `O=C(NC(Cc1ccccc1)C(=O)O)c1ccccc1NC(=O)c1ccnc2ccccc12` (racemic), in assay [3], the negative logarithm of the IC50 (pIC50) was 4.82. Further, in assay [5], the inhibition was < 20%.
As to `O=C(CCc1ccccc1)Nc1ccccc1C(=O)NC(Cc1ccccc1)C(=O)O` (racemic), the results for the inhibition (in the assay listed under Cavia porcellus [4]; in assay [7]) were 37% and < 20%, respectively.
In the case of `Cn1c(C(=O)Nc2ccccc2C(=O)NC(Cc2ccccc2)C(=O)O)cc2ccccc21` (racemic), the pIC50 in assay [3] is 5.00.
As to `O=C(Cc1c[nH]c2ccccc12)Nc1ccccc1C(=O)NC(Cc1ccccc1)C(=O)O` (racemic), the inhibition was 23% in the assay listed under Cavia porcellus [4] and < 20% in assay [7].
The compound `O=C(Nc1ccccc1C(=O)NC(Cc1ccccc1)C(=O)O)c1cc2ccccc2[nH]1` (racemic) showed a pIC50 in assay [3] of 4.79.
Take `O=C(/C=C/c1ccccc1[N+](=O)[O-])Nc1ccccc1C(=O)NC(Cc1ccccc1)C(=O)O` (racemic): the inhibition in the assay listed under Cavia porcellus [4] is 46%; in assay [5], < 20%.
With `O=C(Nc1ccccc1C(=O)NC(Cc1ccccc1)C(=O)O)c1cccs1` (racemic), the inhibition in the assay listed under Cavia porcellus [4] was 24%. The pIC50 in assay [2] was 5.59.
Take `O=C(Nc1ccccc1C(=O)NC(Cc1ccccc1)C(=O)O)c1cc2cc([N+](=O)[O-])ccc2[nH]1` (racemic): in the assay listed under Cavia porcellus [4], the inhibition is 31%. In assay [2], this compound gave a pIC50 of 5.45.
With `O=C(Nc1ccccc1C(=O)N[C@H](Cc1ccccc1)C(=O)O)c1cc2cc(F)ccc2[nH]1`, the pIC50 in assay [3] is 4.17; in assay [2] it was 6.82.
The like results for `Cc1ccc2[nH]c(C(=O)Nc3ccccc3C(=O)NC(Cc3ccccc3)C(=O)O)cc2c1` (racemic) were, in that order, 5.38 and 5.55.
With `O=C(Nc1ccccc1C(=O)NC(Cc1ccccc1)C(=O)O)c1ccncc1` (racemic), the results for the inhibition (in the assay filed under Cavia porcellus [4]; in assay [5]) were 26% and < 20%, respectively.
`O=C(Nc1ccccc1C(=O)N[C@@H](Cc1ccccc1)C(=O)O)c1cc2ccccc2[nH]1`: the inhibition in the assay listed under Cavia porcellus [8] came out at 52%. For the same compound, the pIC50 in assay [2] is 4.99.
With `O=C(Nc1ccccc1C(=O)NC(Cc1ccccc1)C(=O)O)c1ccco1` (racemic), the inhibition in the assay listed under Cavia porcellus [4] was determined as 27%; in assay [5] it was 24%.
For `O=C(Nc1ccccc1C(=O)N[C@H](Cc1ccccc1)C(=O)O)c1cc2cccc(F)c2[nH]1`, the pIC50 in assay [3] was 4.70; in assay [2] it was 7.26.
On to `O=C(NC(Cc1ccccc1)C(=O)O)c1ccccc1NS(=O)(=O)c1ccc2ccccc2c1` (racemic), for which, in assay [3], the pIC50 was 5.14. Also, the inhibition in assay [7] is < 20%.
In the case of `O=C(Nc1ccccc1C(=O)N[C@H](Cc1ccccc1)C(=O)O)c1cc2ccccc2[nH]1`, the results for the pIC50 in assay [3] and in assay [2] were 4.77 and 6.97, respectively.
For `O=C(Nc1ccccc1C(=O)N[C@@H](Cc1ccccc1)C(=O)O)c1cc2cc(F)ccc2[nH]1`, the inhibition in the assay filed under Cavia porcellus [4] came to 20%. For the same compound, in assay [2], the pIC50 is 4.52.
For the compound `CC(C)(C)CC(=O)Nc1ccccc1C(=O)NC(Cc1ccccc1)C(=O)O` (racemic), the inhibition in the assay listed under Cavia porcellus [4] was 37%; in assay [7], < 20%.
As to `O=C(Nc1ccccc1C(=O)NC(Cc1ccccc1)C(=O)O)c1cc2c(F)cccc2[nH]1` (racemic), the pIC50 was 5.02 in assay [3] and 6.03 in assay [2].
In the case of `O=C(Nc1ccccc1C(=O)NC(Cc1ccccc1)C(=O)O)c1ccc2ccccc2n1` (racemic), the pIC50 in assay [3] is 4.84. This compound also had an inhibition in assay [7] of 48%.
`Cn1cccc1C(=O)Nc1ccccc1C(=O)NC(Cc1ccccc1)C(=O)O` (racemic) gave an inhibition in assay [5] of 21%.
For `O=C(Nc1ccccc1C(=O)NC(Cc1ccccc1)C(=O)O)c1ccccn1` (racemic), the inhibition in the assay filed under Cavia porcellus [4] was 31%; in assay [5] it was < 20%.
In turn, `O=C(NC(Cc1ccccc1)C(=O)O)c1ccccc1NC(=O)c1c[nH]c2ccccc12` (racemic) showed a pIC50 in assay [3] of 4.52.

As usually defined, the inhibition is the relative decrease from the control value, in per cent. The low end stands for a response near the control, the high end for a response far below the control. The pIC50 is the IC50 on a negative log10 scale, so that one unit is a factor of ten. A high value points to a low IC50.
